Test results taken from PubChem BioAssay AID2060483 (Molecular Pharmacology Branch, DTP, NCI, 2025).
Several values for one entry are separate records, joined by “and”; a condition that tells them apart may be missing. Equal entries are not always repeated. Blank lines part the entries; values can stand above or below the compound they belong to.

System: K24384-001-R-PDC complex spheroids, viability
Assay: Anticancer human tumor K24384-001-R-PDC patient-derived pancreatic adenocarcinoma cell line growth inhibition [GQUAD]
Details: for viability, T/C: stronger effect = lower value
Description: DNA G-quadruplex Stabilizer Agents in Combinations in Complex Spheroids
A high-throughput screen of multi-cell type tumor spheroids was designed to identify active combinations of DNA G-quadruplex stabilizer agents and targeted small molecules. Complex spheroids include a stromal component modeled by human endothelial cells (HUVEC) and fibroblasts modeled by human mesenchymal stem cells (MSCs). The concentration ranges selected for each drug and investigational agent were based upon clinically achievable concentrations if the clinical Cmax of the agent was known.
Compounds. The drugs and investigational agents: pidnarulex (CX-5461; NSC782164), APTO-253 (NSC789042), BRACO-19 (NSC847499), peposertib (NSC802822), ceralasertib (NSC780249), elimusertib (NSC800525), camonsertib (NSC841442), AZD-1390 (NSC803789), olaparib (NSC753686), talazoparib (NSC767125), ART-558 (NSC835418), sotorasib (NSC818433), MRTX-1133 (NSC836407), SN-38 (NSC673596), topotecan (NSC609699), etoposide (NSC141540), doxorubicin (NSC123127), gemcitabine (NSC613327), 5-fluorouracil (NSC19893), paclitaxel (NSC125973), vemurafenib (NSC761431), panobinostat (NSC761190), R-306465 (JNJ-16241199; NSC773264), adavosertib (NSC754352), TP-3654 (NSC805149), carboplatin (NSC241240), KSQ-4279 (NSC840948), and staurosporine (NSC755774) were obtained from the National Cancer Institute (NCI) Developmental Therapeutics Program Chemical Repository (34). The FDA-approved anticancer drug set is available from the NCI Developmental Therapeutics Program. […] The stock solutions were prepared in dimethyl sulfoxide (DMSO, Sigma-Aldrich, St. Louis, MO, cat. D2650) at 800-fold the tested concentration and stored at -70 degrees C prior to their use. All drugs and investigational agents were tested over a range starting from a high concentration at or near the clinical Cmax and decreasing in half-log increments. If the clinical Cmax for an agent had not been determined, the highest concentration tested was 10 microM.
2.3 Cell Culture. All cells were maintained in an incubator at 37 degrees C and 5% CO2 with 95% humidity. The PDC lines were cultured according to standard operating procedures established by the NCI PDMR. All PDCs were thawed and cultured in Matrigel-coated flasks prepared with a working solution of 1X Ham's F-12 nutrient mix, without supplementation (Invitrogen, cat. 11765054), 100 U/mL penicillin-streptomycin (Invitrogen, cat. 15140122), and 2.5% Matrigel (Corning Inc., cat. 354248) for the first three passages. The 857933-349-R-J2-PDC line was cultured in 6C/Colon 1B media, which includes advanced DMEM/F-12 (Thermo Fisher Scientific, cat. 12634028), 10 mM HEPES (Thermo Fisher Scientific, cat. 15630080), 1X GlutaMAX supplement (Thermo Fisher Scientific, cat. 35050061), 0.1 mg/mL primocin (InvivoGen, cat. ant-pm-2), 10% defined fetal bovine serum, heat inactivated (HyClone Laboratories Inc., cat. SH30070.03HI), 50% L-WRN conditioned media (ATCC, cat. CRL-3276), 1.25 mM N-Acetyl-L-cysteine (Sigma-Aldrich, cat. A9165), 10 mM nicotinamide (Sigma-Aldrich, cat. N0636), 1X B-27 supplement (Thermo Fisher Scientific, cat. 17504044), 1X N-2 supplement (Thermo Fisher Scientific, cat. 17502048), 10 microM Y-27632 dihydrochloride (Tocris Bioscience, cat. 1254), and 50 ng/mL human EGF recombinant protein (Thermo Fisher Scientific, cat. PHG0311). The 485176-168-R4-J1-PDC line was cultured in Panc media, which includes all 6C/Colon 1B media components plus 100 ng/mL human FGF-10 (Thermo Fisher Scientific, cat. 100-26), 500 nM SB-431542 (Selleckchem, cat. S1067), and gastrin (Tocris, cat. 3006).
[…]
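Note: spheroids exposed to compounds for seven days.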

IC50 (curve of compound): 109 nM and 82.7 nM and 141 nM
SMILES: CC1COCCN1c1cc(-c2ccnn2C)c2ccnc(-c3ccn[nH]3)c2n1 (configuration not stated)
viability, T/C (compound 0.0316 µM): 85.2% and 75.3% and 76.9%
viability, T/C (compound 0.1 µM): 49.8% and 45% and 54.3%
viability, T/C (compound 0.316 µM): 41.3% and 28.3% and 40.7%
viability, T/C (compound 1 µM): 37.1% and 26.5% and 29.7%
viability, T/C (compound 3.16 µM): 38.4% and 30.4% and 33.3%
viability, T/C (compound 10 µM): 31.8% and 32.7% and 33.8%

IC50 (curve of compound): > 10000 nM
SMILES: COc1ncnc(C2CC2)c1-c1ncc2cnn(Cc3ccc(-c4nc(C(F)(F)F)cn4C(C)C)cc3)c2n1
viability, T/C (compound 0.0316 µM): 90.9% and 94.8% and 89.7%
viability, T/C (compound 0.1 µM): 101% and 104% and 81.5%
viability, T/C (compound 0.316 µM): 100% and 102% and 101%
viability, T/C (compound 1 µM): 75.5% and 96.3% and 84.7%
viability, T/C (compound 3.16 µM): 109% and 103% and 87.2%
viability, T/C (compound 10 µM): 96.1% and 110% and 99.2%

IC50 (curve of compound): > 316 nM
SMILES: Cn1ncnc1[C@H]1c2n[nH]c(=O)c3cc(F)cc(c23)N[C@@H]1c1ccc(F)cc1
viability, T/C (compound 0.000999 µM): 112% and 100% and 116%
viability, T/C (compound 0.00316 µM): 106% and 95% and 96.9%
viability, T/C (compound 0.00999 µM): 109% and 76.1% and 136%
viability, T/C (compound 0.0316 µM): 79.5% and 80.1% and 87.8%
viability, T/C (compound 0.0999 µM): 88.6% and 88.1% and 99.9%
viability, T/C (compound 0.316 µM): 85.2% and 80.7% and 93.3%

Further lines, the compound ahead of its results:

SMILES: COc1cccc2c1C(=O)c1c(O)c3c(c(O)c1C2=O)CC(O)(C(=O)CO)CC3OC1CC(N)C(O)C(C)O1 (configuration not stated)
viability, T/C (compound 0.0316 µM): 96.8% and 80.5% and 92.1%
viability, T/C (compound 0.1 µM): 67.9% and 52.2% and 54.5%
viability, T/C (compound 0.316 µM): 38.1% and 41.2% and 43.5%
viability, T/C (compound 1 µM): 19.5% and 22.3% and 19.1%
viability, T/C (compound 3.16 µM): 7.67% and 6.06% and 6.27%
viability, T/C (compound 10 µM): 4.91% and 3.92% and 4.93%
IC50 (curve of compound): 201 nM and 144 nM and 161 nM

SMILES: O=c1[nH]cc(F)c(=O)[nH]1
viability, T/C (compound 0.0316 µM): 101% and 113% and 79.9%
viability, T/C (compound 0.1 µM): 71.8% and 95.1% and 98.7%
viability, T/C (compound 0.316 µM): 89.6% and 94.3% and 82.2%
viability, T/C (compound 1 µM): 54.9% and 55.5% and 54.3%
viability, T/C (compound 3.16 µM): 41.3% and 45.8% and 44.6%
viability, T/C (compound 10 µM): 45.5% and 56.4% and 37.8%
IC50 (curve of compound): 1640 nM and > 10000 nM and 1500 nM

SMILES: Cc1[nH]c2ccccc2c1CCNCc1ccc(/C=C/C(=O)NO)cc1 + Cc1[nH]c2ccc(F)cc2c1-c1nc2c3cccnc3c3ncccc3c2[nH]1
IC50 (curve of first compound, second compound 0.0316 µM): 139 nM
IC50 (curve of first compound, second compound 0.1 µM): 138 nM
IC50 (curve of first compound, second compound 0.316 µM): 121 nM
IC50 (curve of first compound, second compound 1 µM): 124 nM
IC50 (curve of first compound, second compound 3.16 µM): 128 nM
IC50 (curve of first compound, second compound 10 µM): 134 nM
viability, T/C (second compound 0.0316 µM, first compound 0.000999 µM): 103%
viability, T/C (second compound 0.0316 µM, first compound 0.00316 µM): 111%
viability, T/C (second compound 0.0316 µM, first compound 0.00999 µM): 119%
viability, T/C (second compound 0.0316 µM, first compound 0.0316 µM): 103%
viability, T/C (second compound 0.0316 µM, first compound 0.0999 µM): 67.9%
viability, T/C (second compound 0.0316 µM, first compound 0.316 µM): 5.6%
viability, T/C (second compound 0.1 µM, first compound 0.000999 µM): 99.1%
viability, T/C (second compound 0.1 µM, first compound 0.00316 µM): 95.2%
viability, T/C (second compound 0.1 µM, first compound 0.00999 µM): 98.7%
viability, T/C (second compound 0.1 µM, first compound 0.0316 µM): 99.6%
viability, T/C (second compound 0.1 µM, first compound 0.0999 µM): 66.7%
viability, T/C (second compound 0.1 µM, first compound 0.316 µM): 7.11%
viability, T/C (second compound 0.316 µM, first compound 0.000999 µM): 95%
viability, T/C (second compound 0.316 µM, first compound 0.00316 µM): 92.9%
viability, T/C (second compound 0.316 µM, first compound 0.00999 µM): 101%
viability, T/C (second compound 0.316 µM, first compound 0.0316 µM): 103%
viability, T/C (second compound 0.316 µM, first compound 0.0999 µM): 58.6%
viability, T/C (second compound 0.316 µM, first compound 0.316 µM): 5.93%
viability, T/C (second compound 1 µM, first compound 0.000999 µM): 91.3%
viability, T/C (second compound 1 µM, first compound 0.00316 µM): 91.8%
viability, T/C (second compound 1 µM, first compound 0.00999 µM): 124%
viability, T/C (second compound 1 µM, first compound 0.0316 µM): 118%
viability, T/C (second compound 1 µM, first compound 0.0999 µM): 60.1%
viability, T/C (second compound 1 µM, first compound 0.316 µM): 7.14%
viability, T/C (second compound 3.16 µM, first compound 0.000999 µM): 81.3%
viability, T/C (second compound 3.16 µM, first compound 0.00316 µM): 87.7%
viability, T/C (second compound 3.16 µM, first compound 0.00999 µM): 77.3%
viability, T/C (second compound 3.16 µM, first compound 0.0316 µM): 94.4%
viability, T/C (second compound 3.16 µM, first compound 0.0999 µM): 61.1%
viability, T/C (second compound 3.16 µM, first compound 0.316 µM): 8.67%
viability, T/C (second compound 10 µM, first compound 0.000999 µM): 77.2%
viability, T/C (second compound 10 µM, first compound 0.00316 µM): 72.9%
viability, T/C (second compound 10 µM, first compound 0.00999 µM): 77.2%
viability, T/C (second compound 10 µM, first compound 0.0316 µM): 118%
viability, T/C (second compound 10 µM, first compound 0.0999 µM): 65.4%
viability, T/C (second compound 10 µM, first compound 0.316 µM): 5.58%
